Laboratory results as given in paper PMC9466619, “Anti-cancer and immunomodulatory evaluation of new nicotinamide derivatives as potential VEGFR-2 inhibitors and apoptosis inducers: in vitro and in silico studies” (Journal of Enzyme Inhibition and Medicinal Chemistry, 2022).

Key:
human VEGFR-2 = molecular target: T1, human VEGFR-2 (Homo sapiens, UniProt P35968); experiment: In vitro VEGFR-2 enzyme inhibition assay (Human VEGFR-2 ELISA kit); type: biochemical
T1 construct: VEGFR-2 in HepG2 cell line; endogenous in cells; host or cells: HepG2
T1 sequence (P35968 20-1356): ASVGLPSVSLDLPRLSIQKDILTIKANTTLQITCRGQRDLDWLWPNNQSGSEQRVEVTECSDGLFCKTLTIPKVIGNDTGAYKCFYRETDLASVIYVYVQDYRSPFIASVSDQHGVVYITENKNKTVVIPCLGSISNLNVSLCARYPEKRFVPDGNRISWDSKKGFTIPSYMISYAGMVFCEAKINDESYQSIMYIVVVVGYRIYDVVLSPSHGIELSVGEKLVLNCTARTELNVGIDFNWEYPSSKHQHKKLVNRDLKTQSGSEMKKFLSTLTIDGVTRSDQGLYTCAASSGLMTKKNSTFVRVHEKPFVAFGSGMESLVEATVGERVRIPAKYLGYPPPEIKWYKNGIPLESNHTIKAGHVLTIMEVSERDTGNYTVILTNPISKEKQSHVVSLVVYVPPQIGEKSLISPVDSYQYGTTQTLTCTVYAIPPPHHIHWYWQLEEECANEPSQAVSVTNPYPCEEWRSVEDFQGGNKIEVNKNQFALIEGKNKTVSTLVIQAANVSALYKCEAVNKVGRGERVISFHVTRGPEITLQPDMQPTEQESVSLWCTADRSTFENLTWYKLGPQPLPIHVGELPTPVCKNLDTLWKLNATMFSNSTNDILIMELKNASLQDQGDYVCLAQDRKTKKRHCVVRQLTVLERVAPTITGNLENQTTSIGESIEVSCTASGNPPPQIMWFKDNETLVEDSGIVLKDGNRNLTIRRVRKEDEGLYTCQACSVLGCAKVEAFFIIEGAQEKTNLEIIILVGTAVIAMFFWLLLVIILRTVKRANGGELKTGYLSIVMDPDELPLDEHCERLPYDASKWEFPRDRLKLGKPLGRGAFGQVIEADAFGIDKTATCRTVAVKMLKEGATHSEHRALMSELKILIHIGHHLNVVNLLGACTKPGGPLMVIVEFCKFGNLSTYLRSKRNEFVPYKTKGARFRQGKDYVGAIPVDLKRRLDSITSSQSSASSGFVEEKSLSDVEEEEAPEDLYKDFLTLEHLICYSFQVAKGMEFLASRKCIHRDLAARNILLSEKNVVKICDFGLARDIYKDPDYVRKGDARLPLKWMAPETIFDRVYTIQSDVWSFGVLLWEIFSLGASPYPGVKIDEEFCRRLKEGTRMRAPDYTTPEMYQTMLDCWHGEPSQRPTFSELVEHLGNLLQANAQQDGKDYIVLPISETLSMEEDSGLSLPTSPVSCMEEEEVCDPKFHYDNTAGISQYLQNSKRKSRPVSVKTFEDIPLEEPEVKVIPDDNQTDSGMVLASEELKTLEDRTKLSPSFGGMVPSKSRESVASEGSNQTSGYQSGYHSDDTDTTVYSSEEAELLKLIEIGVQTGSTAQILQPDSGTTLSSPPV
Procedure: (§1) 3- 4.2. Experimental of biological testing
4.2.1. In vitro anti-proliferative activity […]
The tested cell lines were purchased and dropped on the appropriate growth medium. The growth medium was supplemented with […] of streptomycin, 100 units/mL of penicillin and 10% of heat-inactivated fetal bovine serum in a humidified 5% (v/v) CO2 atmosphere at 37 ◦C. […]
(§2) 4.2.2. In vitro VEGFR-2 kinase assay
(§3) The synthesized compounds were estimated for their in vitro inhibition on human VEGFR-2 in HepG2 cell line; using ELISA kit. Firstly, a plate was used for the assay […]
nominated as a standard VEGFR-2 inhibitor. Both standard and samples were added to the wells and incubated overnight at 4 ◦C, then washed. The biotinylated antibody was supplemented and further incubated for 1 h at room temperature. The unreacted, liberated antibody was then washed; followed by addition of HRP-conjugated streptavidin and incubated for 45 min at room temperature. Wells were washed and a TMB substrate solution was added and kept at room temperature for 30 min. Finally, the stop solution was added, and the intensity of the color produced was measured at […]

HepG-2 = experiment: MTT anti-proliferative assay, HepG-2; type: cell-based; details: Homo sapiens, HepG2, HepG-2 hepatocellular carcinoma cells, read-out: Cytotoxicity IC50 HepG-2
Procedure: (§4) MTT procedure[41]^,[42] was applied for the determination of the anti-proliferative activity as described in Supplementary data.
as §1
(§5) 4.2.1. In vitro anti-proliferative activity
(§6) The in vitro antiproliferative activities of the synthesized compounds were evaluated against two human tumor cell lines: hepatocellular carcinoma (HepG2) and breast cancer (MCF-7) using MTT assay protocol The commercially available […]
(§7) The tested cell lines were purchased and dropped on the appropriate growth medium. The growth medium was supplemented with […] of streptomycin, 100 units/mL of penicillin and 10% of heat-inactivated fetal bovine serum in a humidified 5% (v/v) CO2 atmosphere at 37 ◦C.
(§8) Then the cells from the two cancer cell lines were seeded at the appropriate densities into 96-well microtiter plates. After incubation for 24 h, the growth medium of each cell was treated with graded concentrations (0.1, 10, 100 and 1000 μM) of the test compounds and incubated for three days. The viability of treated cells was determined using 3-[4,5-dimethylthiazole-2-yl]- 2,5-diphenyltetrazolium bromide (MTT) technique as cells were stained with 5% MTT solution and allowed to break down the dye into colored-insoluble formazan crystals for 4 h. The formazan crystals were dissolved in acidified isopropanol for 30 min with continuous shaking at room temperature. The colorimetric assay was measured and recorded at absorbance of 570 nm. The cell viability was expressed as percentage of control and the concentration that […]
(§9) 100% viability and group treated with a mixture of toxic compounds as 0% viability.
(IC50) were determined for each compound using Graph Pad Prism version 5 software by plotting of log C against % viability. […]

HCT-116 = experiment: MTT anti-proliferative assay, HCT-116; type: cell-based; details: Homo sapiens, HCT-116 colorectal cancer cells, read-out: Cytotoxicity IC50 HCT-116
Procedure: [Worded in the source for another cell line; this cell line is reported under the same test.] as §4, §1, §5, §6, §7, §8, §9
(IC50) were determined for each compound using Graph Pad Prism version 5 software by plotting of log C against % viability.
as §2, §3
nominated as a standard VEGFR-2 inhibitor. Both standard and samples were added to the wells and incubated overnight at 4 ◦C, then washed. The biotinylated antibody was supplemented and further incubated for 1 h at room temperature. The unreacted, […]

HCT-116 cells [1] = experiment: Apoptosis assay, FITC-Annexin V/PI flow cytometry; type: cell-based, human; details: 15.70 μM, 48 h
Procedure: To determine whether apoptosis induction is involved in the anti-proliferative effects of the synthesised compounds, the apoptosis assay was performed for compound 7 against HCT-116 cells. The cells were incubated with either vehicle or compound 7 at a concentration of 15.70 μM for 48 h and then stained with FITC-Annexin V and propidium iodide (PI). The percentages of apoptotic HCT-116 cells were determined by flow cytometry analysis.
Flow cytometry cell apoptosis analysis was used to investigate the apoptotic effect of compound 7 as described in Supplementary data[46]^,[47]. […]
4.2.4. Flow cytometry analysis for apoptosis
Flow cytometry cell apoptosis analysis was used to investigate the apoptotic […]
AnnexinV-fluorescein isothiocyanate (Annexin V-FITC) is a protein that has high affinity to phosphatidyl serine PS, which can be detected by staining with Annexin V-(FITC) and counter staining with propidium iodide (PI). In such procedure, HepG2 cells were incubated together with the tested compound […] for 24 h. Then, the cells were centrifuged, collected by trypsin, washed with PBS two successive times, and suspended in […] of binding buffer. The double staining Annexin V-FITC […] were added to the cells and incubated in the dark for 5 min at room temperature. The stained cells were analyzed for flow cytometry using FACS caliber flow cytometer and apoptosis detection kit (BD Biosciences, San Jose, CA)

HCT-116 cells [2] = experiment: Cell cycle analysis by PI staining and flow cytometry; type: cell-based, human; details: 48 h
Procedure: Numerous anti-proliferative agents produce their effect by either arresting the cell growth at a particular point of the cell cycle or the induction of apoptosis, or by a combined effect. Taking compound 7 as a representative example of the tested compounds, its effect on the cell-cycle arrest of the HCT-116 cells for 48 h was evaluated by flow cytometry assay using the untreated HCT-116 as a control.
Cell cycle analysis was performed using propidium iodide (PI) staining and flow cytometry analysis for compound 7 as described in Supplementary data[44]^,[45]. […]
5% CO2. Cells were washed twice with phosphate buffer saline, then the centrifugation of cell pellets had been completed, followed by preservation with ice-cold 70% ethanol for 15 min. Pellets were collected again and incubated with propidium iodide (PI) staining solution. After incubation for one hour at room temperature, it was analyzed by flowcytometry on an FC500 cytometer (Beckman Coulter) and the cell cycle distributions were calculated. […]

TNF-α = experiment: qRT-PCR level of TNF-α in HCT-116 cells; type: cell-based, human; details: 24 h, compound 7 at 15.70 µM, compound 10 at […]
Procedure: (§10) Dexamethasone as a universal immunomodulatory drug was used as a reference molecule.
(§11) The effect of compounds 7 and 10 on the expression of TNF-α and IL-6 were determined using qRT-PCR as described in Supplementary data[48–50].
(§12) 4.2.5. Quantitative Real Time Reverse-Transcriptase PCR technique
(§13) The quantity of immunomodulatory proteins (TNF-α and IL-6) in control and compounds 7, 10 (at the IC50 concentration)-treated HepG2 cells was as sessed by qRT-PCR (reference). Total RNA from vehicle -treated control (0.01% DMSO) and […] HepG2 cells were extracted as -per the manufacturer instructi ons (RNeasy mini kit, Qiagen, Germany). After RNA extraction, cDNA was prepared using the Revert Aid First Strand cDNA Synthesis kit (Thermo Scientific, USA). Amplification of target cDNA for apoptosis markers and GAPDH [as a normalization (housekeeping) gene] was done using one-step RT-PCR SYBR® Green kit Master Mix (Bio‐Rad
(§14) Laboratories, USA) on Rotor -Gene Q real-time PCR thermal cycler instrument. cDNA (2 μl aliquots) was mixed with 1 μl of forward primer, 1 μl re verse primer, 10 μl master mixture, and the reaction volume was completed to 20 μl with nuclease -free water. All experiments were performed in tri plicates
(§15) 4- 4.3. Experimental of in silico studies

IL-6 = experiment: qRT-PCR level of IL-6 in HCT-116 cells; type: cell-based, human; details: 24 h, compound 7 at 15.70 µM, compound 10 at […]
Procedure: as §10, §11, §12, §13, §14, §15

Compound: O=C(N/N=C/c1cccc([N+](=O)[O-])c1)c1ccc(NC(=O)c2cccnc2)cc1 [Compound 6, (E)-N-(4–(2-(3-Nitrobenzylidene)hydrazine-1-carbonyl)phenyl)nicotinamide]
- IC50 (human VEGFR-2): 0.292 µM
- IC50 (HepG-2): 19.5 ± 0.063 µM
- IC50 (HCT-116): 22.09 ± 0.064 µM

Compound: COc1cc(/C=N/NC(=O)c2ccc(NC(=O)c3cccnc3)cc2)cc(OC)c1OC [Compound 7, (E)-N-(4–(2-(3,4,5-Trimethoxybenzylidene)hydrazine-1-carbonyl)phenyl) nicotinamide]
- IC50 (human VEGFR-2): 0.25 µM
- IC50 (HepG-2): 15.5 ± 0.055 µM
- Apoptosis Early (HCT-116 cells [1]): 2.75%
- Apoptosis Late (HCT-116 cells [1]): 11.26%
- Apoptosis Total (HCT-116 cells [1]): 15.74%
- Increase in early-phase apoptotic cells versus control (HCT-116 cells [1]): 4 fold
- Increase in late-phase apoptotic cells versus control (HCT-116 cells [1]): 6.5 folds
- Necrosis (HCT-116 cells [1]): 1.73%
- Total apoptosis induction versus control (HCT-116 cells [1]): 5 folds
- Cell cycle distribution (%) % S (HCT-116 cells [2]): 26.92%
- Cell cycle distribution (%) %G0-G1 (HCT-116 cells [2]): 41.92%
- Cell cycle distribution (%) %G2-M (HCT-116 cells [2]): 31.16%
- Cell cycle distribution (%) %Pre-G1 (HCT-116 cells [2]): 15.74%
- IC50 (HCT-116): 15.7 ± 0.058 µM

Compound: C/C(=N\NC(=O)c1ccccc1Cl)c1ccc(NC(=O)c2cccnc2)cc1 [Compound 10]
- IC50 (human VEGFR-2): 0.145 µM

Compound: CC(=O)Nc1ccc(C(=O)N/N=C(\C)c2ccc(NC(=O)c3cccnc3)cc2)cc1 [Compound 11, (E)-N-(4–(1-(2–(4-Acetamidobenzoyl)hydrazono)ethyl)phenyl)nicotinamide]
- IC50 (human VEGFR-2): 0.0866 µM
- IC50 (HepG-2): 21.6 ± 0.07 µM
- IC50 (HCT-116): 20.17 ± 0.063 µM

Compound: C[C@@H]1C[C@H]2[C@@H]3CCC4=CC(=O)C=C[C@]4(C)[C@@]3(F)[C@@H](O)C[C@]2(C)[C@@]1(O)C(=O)CO [Dexamethasone, reference compound]
- TNF-α (% inhibition) (TNF-α): 82.47%
- TNF-α (% inhibition) (TNF-α; listed as dexamethasone): 82.4%
- IL-6 (% inhibition) (IL-6): 93.15%
- IL-6 (% inhibition) (IL-6; listed as dexamethasone): 93.1%

Compound: CNC(=O)c1cc(Oc2ccc(NC(=O)Nc3ccc(Cl)c(C(F)(F)F)c3)cc2)ccn1 [Sorafenib, reference compound]
- IC50 (HepG-2): 7.4 ± 0.253 µM
- IC50 (HCT-116): 9.3 ± 0.201 µM
